Laboratory results taken from patent publication US20110111016A1, “NON-DNA BASE-CONTAINING POLYNUCLEOTIDE COMPOSITIONS AND THEIR USE FOR THE MODULATION OF IMMUNE RESPONSES” (priority 2009, published 2011).

Target: T1, human TLR9 (Homo sapiens, UniProt Q9NR96)
T1 construct: host or cells: HEK293
T1 sequence (Q9NR96 26-1032): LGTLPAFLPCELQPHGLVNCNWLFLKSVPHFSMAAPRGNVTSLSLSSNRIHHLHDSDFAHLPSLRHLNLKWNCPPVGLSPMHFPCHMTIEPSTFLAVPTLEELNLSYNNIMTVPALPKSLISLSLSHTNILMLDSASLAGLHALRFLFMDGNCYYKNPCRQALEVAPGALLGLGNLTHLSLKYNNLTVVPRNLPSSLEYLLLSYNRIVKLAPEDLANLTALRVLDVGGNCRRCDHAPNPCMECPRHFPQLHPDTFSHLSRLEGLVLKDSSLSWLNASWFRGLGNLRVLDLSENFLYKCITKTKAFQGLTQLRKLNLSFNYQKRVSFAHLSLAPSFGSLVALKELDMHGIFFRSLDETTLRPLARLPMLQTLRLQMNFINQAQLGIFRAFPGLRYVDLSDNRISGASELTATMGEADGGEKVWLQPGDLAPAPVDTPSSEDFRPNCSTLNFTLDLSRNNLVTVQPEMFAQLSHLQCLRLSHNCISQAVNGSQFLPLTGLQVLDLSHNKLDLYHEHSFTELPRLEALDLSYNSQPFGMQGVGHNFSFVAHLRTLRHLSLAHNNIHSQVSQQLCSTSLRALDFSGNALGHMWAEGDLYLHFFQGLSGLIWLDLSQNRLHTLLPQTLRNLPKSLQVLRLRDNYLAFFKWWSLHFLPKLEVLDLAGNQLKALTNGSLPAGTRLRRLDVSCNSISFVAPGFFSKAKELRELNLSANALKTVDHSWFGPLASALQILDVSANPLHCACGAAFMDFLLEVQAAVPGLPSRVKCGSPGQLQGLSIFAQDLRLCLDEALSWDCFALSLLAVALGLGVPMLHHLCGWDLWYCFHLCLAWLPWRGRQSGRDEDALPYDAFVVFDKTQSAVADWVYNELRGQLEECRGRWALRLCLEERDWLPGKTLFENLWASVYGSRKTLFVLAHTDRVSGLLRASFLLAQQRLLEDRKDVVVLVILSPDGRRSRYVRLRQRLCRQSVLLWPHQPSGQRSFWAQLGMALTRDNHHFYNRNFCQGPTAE
Assay: NF-κB activation (secreted alkaline phosphatase reporter) in HEK293 cells expressing human TLR9
Assay type: cell-based
Details: HEK293/hTLR9 cell line; polynucleotide final concentration 10 μg/mL; 16-20 hours
Protocol: Toll-like receptors (TLR) are known to interact with a number of natural and synthetic molecules that can function as immune adjuvants. Examples of these molecules are Poly (I:C) polynucleotides, lipopolysaccharide and CpG-containing polynucleotides. The interaction of non-DNA base-containing polynucleotides (SEQ ID NOs: 1-3) to interact with TLR and induce down-stream signaling was tested by assessing NF-κB activation in HEK293 cells expressing human TLR2, 3, 4, 5, 7, 8 and 9. TLR engagement was determined by measurement of secreted alkaline phosphatase, under the control of a reporter inducible by NF-κB. Appropriate positive controls were used for each TLR. […] HEK293 cells containing the appropriate TLR and NF-κB reporting system (InvivoGen, San Diego, Calif., USA) were placed in wells of 96 well plates (25,000-50,000 cells, in a final volume of 200 μL medium designed for the detection of NF-κB induced secreted alkaline phosphatase expression), and incubated with non-DNA base-containing polynucleotides or positive controls for 16-20 hours. TLR activating activity was determined by measurement of absorbance at 650 nm wavelength using a Coulter AD340C absorbance detector. The results shown are expressed as Optical Density (OD).

How did the “TLR activation, Optical Density at 650 nm, hTLR9” value (“TLR activation, Optical Density” below) turn out when “NebGGTGNeb (DNA NGGTGN; Nebularine at both ends, sugar and linkages not given here, further chemistry not given here) [SEQ ID NO: 1, 5′-OH, 3′-OH non-DNA base-containing polynucleotide]” was run?
Its value is 0.074.

Which “TLR activation, Optical Density” value does the source give for IIGTII [SEQ ID NO: 3] here?
Its value is 0.083.

How did the “TLR activation, Optical Density” value turn out when UUGTUU [SEQ ID NO: 2] was run?
The value was 0.090.
